Experimental data from US12000825B2, “Method of selecting stem cells having ability to produce extracellular vesicles with high efficiency using activation of protease-activated receptor-mediated signaling pathways” (SAMSUNG LIFE PUBLIC WELFARE FOUNDATION, priority 2019, dated 2024).
Entries after “also recorded” stand apart in the source; their conditions may differ.

Key:
[1] = system: Human umbilical cord blood-derived mesenchymal stem cells (MSCs); assay: Bioplex assay / ELISA of proteins in EVs (VEGF, angiogenin, angiopoietin-1, HGF); assay type: cell-based
Description: (§1) To pretreat the umbilical cord blood-derived mesenchymal stem cells with thrombin, first, the mesenchymal stem cells were cultured in α-MEM (Gibco, Grand Island, NY, USA) supplemented with 10% (v/v) fetal bovine serum (FBS, Gibco), 100 units/mL penicillin, and 100 μg/mL streptomycin (Invitrogen, Carlsbad, CA, USA) under standard culture conditions. When the cells reached approximately 90% confluency in a culture plate, the cells were washed three times with phosphate buffered saline (PBS) to remove contaminated FBS-derived exosomes, and were then incubated in new serum-free α-MEM supplemented with human recombinant thrombin (1 U/mL, 2 U/mL, and 4 U/mL; Sigma-Aldrich, St. Louis, MO, USA) for 6 hours. After the medium was collected, about 2×10^6 cells per 100 mm culture dish was counted using a Luna-FL™ system (Logos Biosystems, Anyang-si, Korea).
To analyze the cytokine levels of EVs by ELISA, an experiment was conducted using the following method. Specifically, a homogenate of isolated EVs was added to a well containing 0.1 mL of lysis buffer in an ELISA kit. Subsequently, proteins in EVs were quantified using the Bradford method, and then 1 μg of protein was loaded into each well. Thereafter, the levels of angiogenin, angiopoietin-1, VEGF, and HGF, which are present in EVs, were quantified using the Fluorokine® MAP Human Angiogenesis Custom Premix Kit A (R & D Systems, Minneapolis, MN, USA).

Rab-5 and EEA-1 = assay: Immunoblot of early endosome markers; assay type: cell-based, human
Description: (§2) Umbilical cord blood-derived mesenchymal stem cells and EVs were lysed by adding an equal volume of RIPA buffer (Sigma-Aldrich, St. Louis, MO, USA). The protein contents of the lysates were quantified using the Bradford method, and samples containing 10 μg of proteins were mixed with loading buffer containing β-mercaptoethanol, boiled for 10 minutes, and separated according to size by 12% SDS-polyacrylamide gel electrophoresis (SDS-PAGE). Subsequently, the separated proteins were transferred to nitrocellulose membranes, and then a 5% bovine serum albumin (BSA) solution was prepared with 0.5% Tween-20-containing 1×PBS-T, the membranes were blocked therewith at room temperature, followed by treatment with primary antibodies and incubation at room temperature for 1 hour. After incubation, the membranes were washed with 1×PBS-T, followed by incubation with anti-mouse or anti-rabbit horseradish peroxidase-conjugated immunoglobulin G (1:2000) secondary antibodies while being stirred at room temperature for 1 hour. Subsequently, after washing with PBS-T, protein bands were detected using an ECL Select chemiluminescence reagent (GE Healthcare Life Sciences, Piscataway, NJ, USA), and band images were acquired with X-ray films.

[2] = system: ERK1/2 and AKT signaling pathways; assay: Immunoblot of ERK1/2 and AKT phosphorylation; assay type: cell-based, human
Description: as §2

[3] = system: Human umbilical cord blood-derived mesenchymal stem cells (MSCs); assay: Isolation and quantification of extracellular vesicles (NanoSight); assay type: cell-based; details: for production of EVs: 6 hours, FIG. 1A
Description: as §1
To isolate extracellular vesicles (hereinafter, referred to as EVs) secreted by the umbilical cord blood-derived mesenchymal stem cells pretreated with thrombin according to the method of Example 1-1, an experiment was conducted according to the following processes. Specifically, the above recovered medium was centrifuged at 3,000 rpm and 4° C. for 30 minutes to remove cell debris, and then centrifuged at 100,000 rpm and 4° C. for 120 minutes to precipitate EVs. Then, the precipitated pellet was washed twice, re-suspended in sterile PBS, and stored at −80° C. until use.
The distribution of EVs was analyzed by measuring the rate of Brownian motion using NanoSight (NanoSight NS300; Malvern, Worcestershire, UK), which is equipped with fast video capture and particle-tracking software. The obtained EVs were re-suspended in PBS (500 μl, 1 mg/mL total protein), and size and polydispersity thereof were measured. In addition, to quantify the production of EVs by a single cell, cells were counted using a LUNA-FL system according to the manufacturer's protocol using the medium recovered above. The number of EVs produced by a single cell was calculated by dividing the total number of EVs by the number of cells.

[4] = system: Human umbilical cord blood-derived mesenchymal stem cells (MSCs); assay: Early endosome labeling (CellLight Early Endosomes-GFP); assay type: cell-based
Description: Early endosomes were labeled using CellLight® reagent-green fluorescent protein (GFP), BacMam 2.0 (Thermo Fisher Scientific, San Jose, CA, USA) according to the manufacturer's instructions. Briefly, mesenchymal stem cells were dispensed in a 12-well plate at a density of 1.5×10^4 per well, and after cells were attached, BacMam 2.0 reagent was added at a concentration of 40 particles per cell (PPC). Next, to measure Rab5α-GFP expression, early endosomes were labeled using CellLight® early endosomes-GFP, BacMam 2.0. Thereafter, to estimate the number of GFP-labeled endosomes, the optical density of green immunofluorescence was measured using ImageJ (National Institutes of Health, Bethesda, MD, USA).

[5] = system: Human umbilical cord blood-derived mesenchymal stem cells (MSCs); assay: Observation of EVs by SEM and TEM; assay type: cell-based; details: thrombin-pretreated vs not treated, FIG. 1D
Description: EVs (5 μl) were fixed with 2% glutaraldehyde, loaded on 200-mesh formvar/carbon-coated electron microscopy grids (Electron Microscopy Sciences, Washington, PA, USA), and incubated for 10 minutes. Subsequently, the EVs were washed with filtered distilled water and stained with 2% uranyl acetate in water for 1 minute. Thereafter, the stained EVs were observed using a Tecnai Spirit G2 transmission electron microscope (FEI, Hillsboro, OR, USA) operating at 120 kV, and then an image thereof was acquired.
Meanwhile, to observe isolated EVs using a scanning electron microscope, EVs were fixed in 2.5% glutaraldehyde and loaded on a polycarbonate membrane. Next, the membrane was washed once with PBS and water and then dehydrated with acetone. Subsequently, the acetone was removed by critical point drying using liquid carbon dioxide. Samples were mounted on aluminum stubs with carbon tape and mounted on an SEM stub. After sputter coating with 3-5 nm platinum, the samples were observed using a scanning electron microscope (Zeiss Auriga Workstation, Oberkochen, Germany) and images thereof were acquired.

[6] = compared to no thrombin, in proportion to thrombin concentration

## CC(C)c1ccc(Cn2ccc3c4c(N)nc(NC5CC5)nc4ccc32)cc1.Cl.Cl [SCH79797, N3-cyclopropyl-7-[[4-(1-methylethyl)phenyl]methyl]-7H-pyrrolo[3,2-f]quinazolin-1,3-diamine dihydrochloride, reference compound]
[1]; compared to transfection with PAR3 siRNA, FIG. 5D
  increase in the levels of proteins in EVs, comparison: inhibited at a higher level
[1]; thrombin-pretreated MSCs, SCH79797 1 μM, FIG. 5D
  increase in the levels of VEGF, angiogenin, angiopoietin-1 and HGF in EVs: significantly inhibited
Rab-5 and EEA-1; thrombin-pretreated MSCs, compared to the PAR3 siRNA-treated group, FIG. 4A
  expression levels of Rab-5 and EEA-1, comparison: further reduced
Rab-5 and EEA-1; thrombin-pretreated MSCs, compared to thrombin alone, SCH79797 1 μM, FIG. 4A
  expression levels of Rab-5 and EEA-1: significantly reduced
[2]; compared to PAR-3-specific siRNA treatment, FIG. 4B
  increase in phosphorylation of ERK1/2 and AKT by thrombin, comparison: inhibited at a more significant level
[2]; thrombin-pretreated MSCs, SCH79797 1 μM, FIG. 4B
  increase in phosphorylation of ERK1/2 and AKT by thrombin pretreatment: significantly inhibited
[3]; compared to transfection with PAR3 siRNA, FIGS. 5B and 5C
  increase in the number of extracellular vesicles by thrombin, comparison: inhibited at a higher level
[3]; thrombin-pretreated MSC culture media, SCH79797 1 μM, FIGS. 5B and 5C
  increase in the number of extracellular vesicles by thrombin treatment: significantly inhibited
[4]; compared to transfection with PAR3 siRNA, FIG. 5A
  increase in the number of early endosomes by thrombin, comparison: more significantly inhibited
[4]; thrombin-pretreated MSCs, SCH79797 1 μM, FIG. 5A
  increase in the number of early endosomes by thrombin treatment: significantly inhibited

## thrombin
[1]; [6]
  levels of proteins in extracellular vesicles, increase: ≥ 2 fold
[1]; thrombin 2 U/mL and 4 U/mL vs not treated, FIG. 1B
  levels of VEGF, angiogenin, angiopoietin-1 and HGF in EVs: significantly increased
Rab-5 and EEA-1; thrombin treatment vs none, FIG. 3A
  expression levels of early endosome markers Rab-5 and EEA-1: significantly increased
[2]; thrombin treatment, not statistically significant, FIG. 3B
  expression of non-phosphorylated ERK1/2 and AKT: tended to increase slightly
[2]; thrombin-pretreated vs not treated, FIG. 3B
  expression of pERK1/2 and pAKT (phosphorylation of ERK1/2 and AKT): significantly increased
[3]; [6]
  amount of produced extracellular vesicles, increase: ≥ 5 fold
[3]; thrombin 1-4 U/mL
  production of EVs: increased in a thrombin concentration-dependent manner
[3]; thrombin 2 U/mL and 4 U/mL
  production of EVs: significantly increased
[3]; thrombin-pretreated vs not treated, FIG. 1E
  number of isolated EVs: greater number
[4]; thrombin-pretreated vs naive, FIG. 1C
  level of early endosomes: significantly increased; also recorded: significantly high level
[5]
  EVs observed by SEM/TEM: more EVs were observed
